Columns and labels:
Details in all cases: dose 10-50 µM
[1] = target: T1, Ubiquitin carboxyl-terminal hydrolase 5 (Homo sapiens) (UniProt P45974); experiment: Inhibition of human USP5 (1 to 835 residues) expressed in Sf9 cells using ubiquitin rhodamine 110 as substrate assessed as remaining enzyme activity at 10 to 50 uM by fluorometric assay
T1 sequence (whole entry): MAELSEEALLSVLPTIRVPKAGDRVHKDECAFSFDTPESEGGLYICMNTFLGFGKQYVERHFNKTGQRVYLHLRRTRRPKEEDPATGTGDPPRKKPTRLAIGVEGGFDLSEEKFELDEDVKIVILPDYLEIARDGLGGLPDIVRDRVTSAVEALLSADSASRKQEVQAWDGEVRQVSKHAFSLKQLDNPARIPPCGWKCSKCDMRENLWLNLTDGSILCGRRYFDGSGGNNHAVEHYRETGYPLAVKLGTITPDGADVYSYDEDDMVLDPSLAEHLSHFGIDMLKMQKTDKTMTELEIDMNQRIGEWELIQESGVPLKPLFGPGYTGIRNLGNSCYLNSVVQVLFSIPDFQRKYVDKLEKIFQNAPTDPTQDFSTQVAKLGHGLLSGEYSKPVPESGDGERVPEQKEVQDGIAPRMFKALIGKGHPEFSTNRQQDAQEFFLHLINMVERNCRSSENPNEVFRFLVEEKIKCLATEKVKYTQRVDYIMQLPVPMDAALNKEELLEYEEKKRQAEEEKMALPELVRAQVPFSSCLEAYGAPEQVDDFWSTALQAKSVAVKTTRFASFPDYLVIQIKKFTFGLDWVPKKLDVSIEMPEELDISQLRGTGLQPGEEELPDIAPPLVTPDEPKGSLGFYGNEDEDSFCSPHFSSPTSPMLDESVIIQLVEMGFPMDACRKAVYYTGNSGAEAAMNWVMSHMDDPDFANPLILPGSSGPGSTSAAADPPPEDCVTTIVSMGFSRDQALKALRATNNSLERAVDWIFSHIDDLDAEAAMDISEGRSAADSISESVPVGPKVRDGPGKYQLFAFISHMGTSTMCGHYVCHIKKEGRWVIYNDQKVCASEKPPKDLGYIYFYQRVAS

[2] = target: T2, Ubiquitin carboxyl-terminal hydrolase 21 (Homo sapiens) (UniProt Q9UK80); experiment: Inhibition of human USP21 (209 to 563 residues) expressed in Escherichia coli BL21 (DE3) using ubiquitin rhodamine 110 as substrate assessed as remaining enzyme activity at 10 to 50 uM by fluorometric assay
T2 sequence (whole entry): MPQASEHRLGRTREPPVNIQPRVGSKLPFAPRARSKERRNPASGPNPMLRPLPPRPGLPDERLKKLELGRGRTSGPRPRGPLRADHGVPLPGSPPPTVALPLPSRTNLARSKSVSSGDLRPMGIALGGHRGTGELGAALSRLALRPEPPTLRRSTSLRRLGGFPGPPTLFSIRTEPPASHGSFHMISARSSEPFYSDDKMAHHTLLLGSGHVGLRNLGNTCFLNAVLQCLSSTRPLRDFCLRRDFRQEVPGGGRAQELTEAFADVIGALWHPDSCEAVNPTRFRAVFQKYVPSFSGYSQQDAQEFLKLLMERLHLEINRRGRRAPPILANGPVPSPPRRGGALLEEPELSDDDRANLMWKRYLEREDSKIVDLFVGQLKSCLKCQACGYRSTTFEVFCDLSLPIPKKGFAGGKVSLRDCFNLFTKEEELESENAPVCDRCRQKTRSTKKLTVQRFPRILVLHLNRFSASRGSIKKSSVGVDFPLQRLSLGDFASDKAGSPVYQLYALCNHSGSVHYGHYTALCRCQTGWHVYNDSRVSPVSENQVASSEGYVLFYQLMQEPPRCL

[3] = target: T3, Ubiquitin carboxyl-terminal hydrolase 22 (Homo sapiens) (UniProt Q9UPT9); experiment: Inhibition of human USP22 (1 to 525 residues) expressed in Sf9 cells using ubiquitin rhodamine 110 as substrate assessed as remaining enzyme activity at 10 to 50 uM by fluorometric assay
T3 sequence (whole entry): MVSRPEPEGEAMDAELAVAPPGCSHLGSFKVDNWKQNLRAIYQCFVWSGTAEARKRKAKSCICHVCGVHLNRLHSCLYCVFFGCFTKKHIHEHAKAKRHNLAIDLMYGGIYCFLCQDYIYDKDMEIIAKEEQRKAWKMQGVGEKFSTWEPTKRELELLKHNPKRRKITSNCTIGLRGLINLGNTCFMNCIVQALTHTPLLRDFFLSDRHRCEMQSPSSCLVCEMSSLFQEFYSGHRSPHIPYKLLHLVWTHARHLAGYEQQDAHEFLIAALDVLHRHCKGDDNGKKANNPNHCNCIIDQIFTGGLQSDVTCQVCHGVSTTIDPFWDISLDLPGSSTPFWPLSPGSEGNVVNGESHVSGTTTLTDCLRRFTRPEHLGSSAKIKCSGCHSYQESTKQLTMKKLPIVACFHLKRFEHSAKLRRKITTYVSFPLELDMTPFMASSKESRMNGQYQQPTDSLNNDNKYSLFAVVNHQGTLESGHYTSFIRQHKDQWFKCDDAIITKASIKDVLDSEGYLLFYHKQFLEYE

[4] = target: T4, Ubiquitin carboxyl-terminal hydrolase 30 (Homo sapiens) (UniProt Q70CQ3); experiment: Inhibition of human USP30 (57 to 517 residues) expressed in Sf9 cells using ubiquitin rhodamine 110 as substrate assessed as remaining enzyme activity at 10 to 50 uM by fluorometric assay
T4 sequence (whole entry): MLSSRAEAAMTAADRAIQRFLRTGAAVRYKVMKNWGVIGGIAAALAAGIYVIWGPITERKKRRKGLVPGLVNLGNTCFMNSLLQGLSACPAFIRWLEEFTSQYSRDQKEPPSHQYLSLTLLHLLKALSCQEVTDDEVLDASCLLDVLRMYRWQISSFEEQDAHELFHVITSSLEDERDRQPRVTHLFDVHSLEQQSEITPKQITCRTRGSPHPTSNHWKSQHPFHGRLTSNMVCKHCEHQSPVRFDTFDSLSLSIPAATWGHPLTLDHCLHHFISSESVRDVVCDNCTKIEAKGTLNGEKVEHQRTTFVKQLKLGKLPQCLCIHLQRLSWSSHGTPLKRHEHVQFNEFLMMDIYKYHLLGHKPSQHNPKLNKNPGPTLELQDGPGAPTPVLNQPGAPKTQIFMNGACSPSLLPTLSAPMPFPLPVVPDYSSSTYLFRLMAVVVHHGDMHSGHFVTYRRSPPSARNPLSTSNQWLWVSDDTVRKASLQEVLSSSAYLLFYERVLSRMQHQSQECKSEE

Measured: Activity

CC(NC(=O)C1CCCC1)C(=O)Nc1nnc(Cc2ccc([N+](=O)[O-])cc2)s1 (racemic)
< 50%: [1] | [2] | [3] | [4]

Source: ChEMBL document CHEMBL5247643, “Discovery and Characterization of BAY-805, a Potent and Selective Inhibitor of Ubiquitin-Specific Protease USP21” (J Med Chem, 2023)
